Results published in PMC11632414 (2024).

Columns and labels:
[1] = tested on: 23TAG (DNA, G4) TAGGGTTAGGGTTAGGGTTAGGG; assay: UV-Vis titration, Benesi-Hildebrand; conditions: K+ (20 mM potassium phosphate); pH 7, 25 °C; 5 μM porphyrin titrated with DNA
[2] = tested on: CMA (DNA, G4) TAGGGAGGGTAGGGAGGGT; assay: UV-Vis titration, Benesi-Hildebrand; conditions: K+ (20 mM potassium phosphate); pH 7, 25 °C; 5 μM porphyrin titrated with DNA

Kb [1]: (1.5±0.4)×10^6 M^-1
Kb [2]: (1.5±0.6)×10^6 M^-1
SMILES: C[n+]1ccc(-c2c3nc(c(-c4cc[n+](C)cc4)c4ccc([nH]4)c(-c4cc[n+](C)cc4)c4nc(c(-c5cc[n+](C)cc5)c5ccc2[nH]5)C=C4)C=C3)cc1
